According to patent US12325696B2, “Indazole derivative, preparation method therefor, and pharmaceutical application thereof” (JIANGSU HENGRUI MEDICINE CO., LTD., priority 2019, dated 2025):

Columns and labels:
Assay type in all cases: cell-based
[1] = tested on: estrogen receptor reporter gene; experiment: Inhibition of estrogen receptor reporter gene activity (ERE-luc luciferase) in MCF7/ERE-luc cells; details: Homo sapiens, 0.1 nM β-estradiol, 20 hours, read-out: IC50 of inhibitory activity on the activity of the estrogen receptor reporter gene
Procedure: MCF7 cells MCF7/ERE-luc (ATCC, HTB-22) expressing the luciferase reporter gene ERE-luc (synthesized by GENEWIZ, Inc.) controlled by the estrogen receptor response element were cultured in MEM (GE Healthcare, SH30024.01) medium containing 10% fetal bovine serum and 500 µg/ml G418. On the first day of the experiment, MCF7/ERE-luc cells were seeded in a 96-well plate with incomplete MEM medium containing 10% fetal bovine serum treated with activated charcoal (BioSun, BS-0004-500) at a density of 30,000 cells/well (100 μl of cell suspension per well), and the plate was incubated in a cell incubator at 37° C. and 5% CO2 overnight. On the second day, 10 μl of β-estradiol (SIGMA, E2758-250MG) solution formulated with the above incomplete medium or test compound solution of different concentrations formulated with the above incomplete medium was added to each well, wherein the final concentration of β-estradiol was 0.1 nM, and the final concentrations of the compound were nine concentration points obtained by a 10-fold gradient dilution starting from 10 μM, a blank control containing 0.5% DMSO was set, and the plate was incubated in a cell incubator at 37° C. and 5% CO2 for 20 hours. On the third day, the 96-well plate was taken out, and 100 μl of ONE-Glo™ Luciferase Assay system (Promega, E6110) was added to each well to determine the activity of luciferase. The plate was left to stand at room temperature for 3 minutes until the cells were fully lysed, and the luminescence signal values were measured using a multi-label microplate reader (PerkinElmer, VICTOR 3). The IC50 values of the inhibitory activity of the compounds were calculated using Graphpad Prism software based on the concentrations and luminescence signal values of the compounds.
The inhibitory effect of the compounds of the present disclosure on the activity of the estrogen receptor reporter gene was determined by the above test. A graph of the chemiluminescence signal values versus the logarithmic concentrations of the compound was made using Graghpad Prism.

MCF7 cell = experiment: Inhibition of proliferation of MCF7 cell (CellTiter-Glo, 144 hours); details: Homo sapiens; for IC50: MCF7, CellTiter-Glo, read-out: IC50 of the inhibitory effect on the proliferation of MCF7 cell; for Emax: MCF7 cell proliferation, read-out: Maximum inhibition
Procedure: (§1) MCF7 cells (ATCC, HTB-22) were cultured in MEM (GE Healthcare, SH30024.01) complete medium containing 10% fetal bovine serum. On the first day of the experiment, MCF7 cells were seeded in a 96-well plate with the complete medium at a density of 3,000 cells/well (100 μl of cell suspension per well), and the plate was incubated in a cell incubator at 37° C. and 5% CO2 overnight. On the second day, the medium in each well was replaced with 135 μl of MEM incomplete medium containing 2% fetal bovine serum. 15 μl of test compound solution of different concentrations formulated with the incomplete medium was added to each well, wherein the final concentrations of the compound were nine concentration points obtained by a 4-fold gradient dilution starting from 100 nM. A blank control containing 0.5% DMSO was set. The plate was incubated in a cell incubator at 37° C. and 5% CO2 for 144 hours. On the eighth day, the 96-well plate was taken out, and 150 μl of CellTiter-Glo® Luminescent Cell Viability Assay (Promega, G7573) was added to each well. The plate was left to stand at room temperature for 10 minutes, and the luminescence signal values were measured using a multi-label microplate reader (PerkinElmer, VICTOR 3). The IC50 values of the inhibitory activity of the compounds were calculated based on the concentrations and luminescence signal values of the compounds using Graphpad Prism software.
A graph of the chemiluminescence signal values versus the logarithmic concentrations of the compound was made using Graghpad Prism to obtain the IC50 values of the compound.

MCF7 D538G = experiment: Inhibition of proliferation of MCF7 cell expressing ERα D538G mutant; details: Homo sapiens, 144 hours; for Emax: read-out: Maximum inhibition
Description: (§2) The mutants ERα Y537S and ERα D538G of human estrogen receptor α (ERαs) protein were obtained by site-directed mutagenesis using the cDNA of wild-type ESR1 gene (Accession No. NM000125) as a template according to double-primer PCR. The primer sequences used for mutagenesis are as follows (the nucleotides underlined are the sites of mutagenesis):
(§3) The cDNA of mutant ESR1 was cloned into the target lentiviral vector pCDH-CMV-MCS-EF1-Puro (SBI, CD510B-1). The lentiviral plasmid with the mutant ESR1 gene sequence and the lentiviral packaging plasmids pVSV-G and pCMV-dR8.91 (SBI, LV500A-1) were transfected into HEK-293T cells (ATCC, CRL-3216) by Lipofectamine 3000 Transfection Reagent (ThermoFisher Scientific, Cat #L3000075). 48 hours after the transfection, the supernatant of the virus-containing DMEM high-glycemic medium (GE Healthcare, SH30243.01) containing 10% FBS was filtered, and ultracentrifuged to obtain the virus pellet. The virus pellet was resuspended in an appropriate amount of MEM medium (GE Healthcare, SH30024.01) containing 10% FBS, non-essential amino acids (SIGMA, M7145-100ML) and sodium pyruvate (SIGMA, S8636-100ML), and the resulting suspension was added to MCF7 cells (ATCC, HTB-22). Polybrene (SIGMA, H9268-5G) at a final concentration of 8 µg/ml was added, and the cells were incubated overnight. Two days after the transfection, […] puromycin (invitrogen, A11138-03) was added to the cell culture medium for resistance screening. After about two weeks, the MCF7 cell line capable of stably expressing ERαY537S and ERα D538G mutants was obtained.
as §1, with “MCF7 cells expressing ERα mutant were cultured” for “MCF7 cells (ATCC, HTB-22) were cultured”, “the experiment, the cells were” for “the experiment, MCF7 cells were”, “control containing 0.500 DMSO was” for “control containing 0.5% DMSO was”, “C. and […] for” for “C. and 5% CO2 for”, “and 150 of CellTiter-Glo®” for “and 150 μl of CellTiter-Glo®”

MCF7 ERαY537S = experiment: Inhibition of proliferation of MCF7 cell expressing ERα Y537S mutant; details: Homo sapiens, 144 hours; for Emax: read-out: Maximum inhibition
Description: as §2, §3
as §1, with “MCF7 cells expressing ERα mutant were cultured” for “MCF7 cells (ATCC, HTB-22) were cultured”, “the experiment, the cells were” for “the experiment, MCF7 cells were”, “control containing 0.500 DMSO was” for “control containing 0.5% DMSO was”, “C. and […] for” for “C. and 5% CO2 for”, “and 150 of CellTiter-Glo®” for “and 150 μl of CellTiter-Glo®”

IC50 [1] [nM] | IC50 (MCF7 cell) [nM] | IC50 (MCF7 D538G) [nM] | IC50 (MCF7 ERαY537S) [nM] | SMILES | Emax (MCF7 cell) [%] | Emax (MCF7 D538G) [%] | Emax (MCF7 ERαY537S) [%]
8 | 0.3 | 4 | 7 | CC#CC(=O)N1CCC(Oc2ccc(/C(=C(/CC(F)(F)F)c3ccccc3)c3ccc4[nH]nc(F)c4c3)cn2)CC1 [Example 10, (Z)-1-(4-((5-(4,4,4-Trifluoro-1-(3-fluoro-1H-indazol-5-yl)-2-phenylbut-1-en-1-yl)pyridin-2-yl)oxy)piperidin-1-yl)but-2-yn-1-one] | 104 | 104 | 86
3 | 0.5 | 1 | 2 | CNC(=O)/C=C/CN1CCC[C@@H](Oc2ccc(/C(=C(/CC(F)(F)F)c3ccccc3)c3ccc4[nH]nc(F)c4c3)cn2)C1 [Example 11, (E)-N-Methyl-4-((R)-3-((5-((Z)-4,4,4-trifluoro-1-(3-fluoro-1H-indazol-5-yl)-2-phenylbut-1-en-1-yl)pyridin-2-yl)oxy)piperidin-1-yl)but-2-enamide] | 110 | 100 | 107
3 | 0.6 | 3 | 5 | O=C(/C=C/CN1CCC[C@@H](Oc2ccc(/C(=C(/CC(F)(F)F)c3ccccc3)c3ccc4[nH]nc(F)c4c3)cn2)C1)NC1CCOCC1 [Example 13, (E)-N-(Tetrahydro-2H-pyran-4-yl)-4-((R)-3-((5-((Z)-4,4,4-trifluoro-1-(3-fluoro-1H-indazol-5-yl)-2-phenylbut-1-en-1-yl)pyridin-2-yl)oxy)piperidin-1-yl)but-2-enamide] | 88 | 107 | 104
5 | 0.8 | 2 | 4 | CC(C)(C)NC(=O)/C=C/CN1CCC[C@@H](Oc2ccc(/C(=C(/CC(F)(F)F)c3ccccc3)c3ccc4[nH]nc(F)c4c3)cn2)C1 [Example 16, (E)-N-(Tert-butyl)-4-((R)-3-((5-((Z)-4,4,4-trifluoro-1-(3-fluoro-1H-indazol-5-yl)-2-phenylbut-1-en-1-yl)pyridin-2-yl)oxy)piperidin-1-yl)but-2-enamide] | 102 | 110 | 88
6 | 0.6 | 3 | 3 | O=C(/C=C/CN1CCC[C@@H](Oc2ccc(/C(=C(/CC(F)(F)F)c3ccccc3)c3ccc4[nH]nc(F)c4c3)cn2)C1)NC1CCCC1 [Example 17, (E)-N-Cyclopentyl-4-((R)-3-((5-((Z)-4,4,4-trifluoro-1-(3-fluoro-1H-indazol-5-yl)-2-phenylbut-1-en-1-yl)pyridin-2-yl)oxy)piperidin-1-yl)but-2-enamide] | 96 | 104 | 102
3 | 0.5 | 1 | 1 | CC#CC(=O)N1CCC[C@@H](Oc2ccc(/C(=C(/CC(F)(F)F)c3ccccc3)c3ccc4[nH]nc(F)c4c3)cn2)C1 [Example 25, (R,Z)-1-(3-((5-(4,4,4-Trifluoro-1-(3-fluoro-1H-indazol-5-yl)-2-phenylbut-1-en-1-yl)pyridin-2-yl)oxy)piperidin-1-yl)but-2-yn-1-one] | 109 | 112 | 107
3 | 0.3 | 1 | 2 | C=CC(=O)N1CCC[C@@H](Oc2ccc(/C(=C(/CC(F)(F)F)c3ccccc3)c3ccc4[nH]nc(F)c4c3)cn2)C1 [Example 26, (R,Z)-1-(3-((5-(4,4,4-Trifluoro-1-(3-fluoro-1H-indazol-5-yl)-2-phenylbut-1-en-1-yl)pyridin-2-yl)oxy)piperidin-1-yl)prop-2-en-1-one] | 103 | 111 | 104
3 | 0.4 | 3 | 2 | CN(C)C(=O)/C=C/CN1CC[C@@H](Oc2ccc(/C(=C(/CC(F)(F)F)c3ccccc3)c3ccc4[nH]nc(F)c4c3)cn2)C1 [Example 29, (E)-N,N-Dimethyl-4-((R)-3-((5-((Z)-4,4,4-trifluoro-1-(3-fluoro-1H-indazol-5-yl)-2-phenylbut-1-en-1-yl)pyridin-2-yl)oxy)pyrrolidin-1-yl)but-2-enamide] | 93 | 93 | 93
3 | 0.3 | 1 | 2 | CN(C)C(=O)/C=C/CN1CCC(Nc2ccc(/C(=C(/CC(F)(F)F)c3ccccc3)c3ccc4[nH]nc(F)c4c3)cn2)CC1 [Example 33, (E)-N,N-Dimethyl-4-(4-((5-((Z)-4,4,4-trifluoro-1-(3-fluoro-1H-indazol-5-yl)-2-phenylbut-1-en-1-yl)pyridin-2-yl)amino)piperidin-1-yl)but-2-enamide] | 105 | 106 | 105
3 | 0.2 | 1 | 1 | CN(C)C(=O)/C=C/CN[C@@H]1CCN(c2ccc(/C(=C(/CC(F)(F)F)c3ccccc3)c3ccc4[nH]nc(F)c4c3)cn2)C1 [Example 34, (E)-N,N-Dimethyl-4-(((R)-1-(5-((Z)-4,4,4-trifluoro-1-(3-fluoro-1H-indazol-5-yl)-2-phenylbut-1-en-1-yl)pyridin-2-yl)pyrrolidin-3-yl)amino)but-2-enamide] | 103 | 101 | 105
